Results reported in ChEMBL document CHEMBL1144239, “Identification of novel protein kinase CK1 delta (CK1delta) inhibitors through structure-based virtual screening” (Bioorg Med Chem Lett, 2008).

Columns and labels:
[1] = Inhibition of CK1
[2] = Cytotoxicity against human ovarian carcinoma cells after 48 hrs; assay type: functional, cell-based; details: Ovarian carcinoma cell
[3] = target: Casein kinase I isoform delta (Homo sapiens, UniProt P48730); test: Inhibition of CK1delta
[4] = target: Casein kinase I isoform gamma-1 (Homo sapiens, UniProt Q9HCP0); test: Inhibition of CK1gamma1
Casein kinase I isoform gamma-1, sequence (Q9HCP0 whole entry, canonical isoform): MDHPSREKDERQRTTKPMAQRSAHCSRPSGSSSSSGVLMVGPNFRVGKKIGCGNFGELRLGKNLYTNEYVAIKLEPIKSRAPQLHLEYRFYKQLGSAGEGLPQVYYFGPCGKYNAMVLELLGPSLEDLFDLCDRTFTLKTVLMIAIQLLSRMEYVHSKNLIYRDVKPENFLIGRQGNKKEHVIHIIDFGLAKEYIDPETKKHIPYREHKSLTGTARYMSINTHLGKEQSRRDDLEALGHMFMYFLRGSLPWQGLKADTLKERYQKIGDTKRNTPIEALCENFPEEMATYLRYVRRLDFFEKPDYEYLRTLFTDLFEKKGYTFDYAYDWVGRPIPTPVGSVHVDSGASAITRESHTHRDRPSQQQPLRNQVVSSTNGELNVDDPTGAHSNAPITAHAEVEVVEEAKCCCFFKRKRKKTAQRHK

[5] = target: Casein kinase I isoform alpha (Homo sapiens, UniProt P48729); test: Inhibition of CK1alpha
Casein kinase I isoform alpha, sequence (P48729 whole entry, canonical isoform): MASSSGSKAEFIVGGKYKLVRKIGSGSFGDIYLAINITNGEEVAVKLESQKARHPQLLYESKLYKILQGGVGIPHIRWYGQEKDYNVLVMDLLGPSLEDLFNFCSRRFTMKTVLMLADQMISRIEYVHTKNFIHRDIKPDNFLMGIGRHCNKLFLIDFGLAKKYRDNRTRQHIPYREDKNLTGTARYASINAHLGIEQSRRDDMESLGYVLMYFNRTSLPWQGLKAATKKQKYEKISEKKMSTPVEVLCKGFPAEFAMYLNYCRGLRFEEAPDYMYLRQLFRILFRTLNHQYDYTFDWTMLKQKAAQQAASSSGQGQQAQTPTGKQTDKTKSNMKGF

[6] = target: Homeodomain-interacting protein kinase 2 (Homo sapiens, UniProt Q9H2X6); test: Inhibition of HIPK2
Homeodomain-interacting protein kinase 2, sequence (Q9H2X6 whole entry): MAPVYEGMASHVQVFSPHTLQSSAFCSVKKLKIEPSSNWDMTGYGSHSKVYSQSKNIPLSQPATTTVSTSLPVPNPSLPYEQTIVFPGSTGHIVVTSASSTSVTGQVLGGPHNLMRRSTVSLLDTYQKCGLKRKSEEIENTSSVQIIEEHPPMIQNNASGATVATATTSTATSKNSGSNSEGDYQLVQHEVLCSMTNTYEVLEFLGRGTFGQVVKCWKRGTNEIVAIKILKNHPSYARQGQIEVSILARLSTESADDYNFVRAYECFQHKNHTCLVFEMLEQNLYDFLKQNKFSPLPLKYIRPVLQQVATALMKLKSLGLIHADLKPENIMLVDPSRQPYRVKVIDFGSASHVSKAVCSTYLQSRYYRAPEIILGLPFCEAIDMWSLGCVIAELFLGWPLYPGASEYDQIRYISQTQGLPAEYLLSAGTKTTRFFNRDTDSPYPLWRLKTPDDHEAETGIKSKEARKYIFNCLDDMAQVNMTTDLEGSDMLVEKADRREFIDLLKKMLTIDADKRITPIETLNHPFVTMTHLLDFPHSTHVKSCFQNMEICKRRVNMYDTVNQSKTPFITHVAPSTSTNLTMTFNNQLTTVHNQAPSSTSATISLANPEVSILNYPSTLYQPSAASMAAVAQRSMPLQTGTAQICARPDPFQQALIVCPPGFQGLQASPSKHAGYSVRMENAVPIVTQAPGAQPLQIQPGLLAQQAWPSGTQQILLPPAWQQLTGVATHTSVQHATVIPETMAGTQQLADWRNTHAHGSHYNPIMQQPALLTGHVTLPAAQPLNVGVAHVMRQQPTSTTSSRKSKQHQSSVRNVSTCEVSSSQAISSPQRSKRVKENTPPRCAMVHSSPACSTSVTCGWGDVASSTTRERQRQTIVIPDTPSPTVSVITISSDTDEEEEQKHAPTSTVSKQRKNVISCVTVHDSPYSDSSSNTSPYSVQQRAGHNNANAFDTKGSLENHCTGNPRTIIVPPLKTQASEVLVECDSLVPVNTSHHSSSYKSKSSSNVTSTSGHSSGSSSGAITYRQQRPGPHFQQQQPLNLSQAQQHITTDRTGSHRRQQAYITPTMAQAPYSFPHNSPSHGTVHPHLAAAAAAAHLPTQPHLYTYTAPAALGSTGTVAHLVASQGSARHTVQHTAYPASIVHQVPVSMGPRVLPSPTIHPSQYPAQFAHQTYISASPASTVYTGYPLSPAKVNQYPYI

[7] = target: Serine/threonine-protein kinase pim-1 (Homo sapiens, UniProt P11309); test: Inhibition of PIM1
Serine/threonine-protein kinase pim-1, sequence (P11309 whole entry): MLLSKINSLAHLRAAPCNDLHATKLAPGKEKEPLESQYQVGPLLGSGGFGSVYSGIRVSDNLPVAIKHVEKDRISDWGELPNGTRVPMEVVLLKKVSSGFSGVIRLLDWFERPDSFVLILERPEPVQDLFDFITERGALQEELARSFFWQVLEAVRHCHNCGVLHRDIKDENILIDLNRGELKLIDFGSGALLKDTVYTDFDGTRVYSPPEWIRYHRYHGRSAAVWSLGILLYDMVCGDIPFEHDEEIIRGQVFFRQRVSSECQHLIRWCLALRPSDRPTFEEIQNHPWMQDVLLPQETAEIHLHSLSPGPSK

[8] = target: Dual specificity tyrosine-phosphorylation-regulated kinase 1A (Homo sapiens, UniProt Q13627); test: Inhibition of DYRK1a
[9] = Inhibition of PKA
[10] = target: Tyrosine-protein kinase CSK (Homo sapiens, UniProt P41240); test: Inhibition of CSK
[11] = target: Tyrosine-protein kinase Lyn (Homo sapiens, UniProt P07948); test: Inhibition of Lyn
Tyrosine-protein kinase Lyn, sequence (P07948 whole entry): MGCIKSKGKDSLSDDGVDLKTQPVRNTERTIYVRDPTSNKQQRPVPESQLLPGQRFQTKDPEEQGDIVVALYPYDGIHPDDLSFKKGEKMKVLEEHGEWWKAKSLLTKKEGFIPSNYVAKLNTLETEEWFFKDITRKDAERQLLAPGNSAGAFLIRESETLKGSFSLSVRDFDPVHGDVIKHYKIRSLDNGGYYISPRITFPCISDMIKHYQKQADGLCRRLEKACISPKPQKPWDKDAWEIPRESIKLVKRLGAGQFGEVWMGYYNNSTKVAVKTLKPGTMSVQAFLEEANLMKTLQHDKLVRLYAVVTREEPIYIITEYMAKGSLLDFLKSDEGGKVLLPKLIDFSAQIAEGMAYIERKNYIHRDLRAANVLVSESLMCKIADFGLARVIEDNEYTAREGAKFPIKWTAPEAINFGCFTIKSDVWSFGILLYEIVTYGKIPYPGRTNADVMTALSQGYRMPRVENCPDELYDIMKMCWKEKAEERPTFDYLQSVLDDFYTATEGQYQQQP

[12] = target: Tyrosine-protein kinase SYK (Homo sapiens, UniProt P43405); test: Inhibition of Syk
[13] = target: Tyrosine-protein kinase Fgr (Homo sapiens, UniProt P09769); test: Inhibition of Fgr
[14] = target: ALK tyrosine kinase receptor (Homo sapiens, UniProt Q9UM73); test: Inhibition of GST tagged ALK
ALK tyrosine kinase receptor, sequence (Q9UM73 whole entry): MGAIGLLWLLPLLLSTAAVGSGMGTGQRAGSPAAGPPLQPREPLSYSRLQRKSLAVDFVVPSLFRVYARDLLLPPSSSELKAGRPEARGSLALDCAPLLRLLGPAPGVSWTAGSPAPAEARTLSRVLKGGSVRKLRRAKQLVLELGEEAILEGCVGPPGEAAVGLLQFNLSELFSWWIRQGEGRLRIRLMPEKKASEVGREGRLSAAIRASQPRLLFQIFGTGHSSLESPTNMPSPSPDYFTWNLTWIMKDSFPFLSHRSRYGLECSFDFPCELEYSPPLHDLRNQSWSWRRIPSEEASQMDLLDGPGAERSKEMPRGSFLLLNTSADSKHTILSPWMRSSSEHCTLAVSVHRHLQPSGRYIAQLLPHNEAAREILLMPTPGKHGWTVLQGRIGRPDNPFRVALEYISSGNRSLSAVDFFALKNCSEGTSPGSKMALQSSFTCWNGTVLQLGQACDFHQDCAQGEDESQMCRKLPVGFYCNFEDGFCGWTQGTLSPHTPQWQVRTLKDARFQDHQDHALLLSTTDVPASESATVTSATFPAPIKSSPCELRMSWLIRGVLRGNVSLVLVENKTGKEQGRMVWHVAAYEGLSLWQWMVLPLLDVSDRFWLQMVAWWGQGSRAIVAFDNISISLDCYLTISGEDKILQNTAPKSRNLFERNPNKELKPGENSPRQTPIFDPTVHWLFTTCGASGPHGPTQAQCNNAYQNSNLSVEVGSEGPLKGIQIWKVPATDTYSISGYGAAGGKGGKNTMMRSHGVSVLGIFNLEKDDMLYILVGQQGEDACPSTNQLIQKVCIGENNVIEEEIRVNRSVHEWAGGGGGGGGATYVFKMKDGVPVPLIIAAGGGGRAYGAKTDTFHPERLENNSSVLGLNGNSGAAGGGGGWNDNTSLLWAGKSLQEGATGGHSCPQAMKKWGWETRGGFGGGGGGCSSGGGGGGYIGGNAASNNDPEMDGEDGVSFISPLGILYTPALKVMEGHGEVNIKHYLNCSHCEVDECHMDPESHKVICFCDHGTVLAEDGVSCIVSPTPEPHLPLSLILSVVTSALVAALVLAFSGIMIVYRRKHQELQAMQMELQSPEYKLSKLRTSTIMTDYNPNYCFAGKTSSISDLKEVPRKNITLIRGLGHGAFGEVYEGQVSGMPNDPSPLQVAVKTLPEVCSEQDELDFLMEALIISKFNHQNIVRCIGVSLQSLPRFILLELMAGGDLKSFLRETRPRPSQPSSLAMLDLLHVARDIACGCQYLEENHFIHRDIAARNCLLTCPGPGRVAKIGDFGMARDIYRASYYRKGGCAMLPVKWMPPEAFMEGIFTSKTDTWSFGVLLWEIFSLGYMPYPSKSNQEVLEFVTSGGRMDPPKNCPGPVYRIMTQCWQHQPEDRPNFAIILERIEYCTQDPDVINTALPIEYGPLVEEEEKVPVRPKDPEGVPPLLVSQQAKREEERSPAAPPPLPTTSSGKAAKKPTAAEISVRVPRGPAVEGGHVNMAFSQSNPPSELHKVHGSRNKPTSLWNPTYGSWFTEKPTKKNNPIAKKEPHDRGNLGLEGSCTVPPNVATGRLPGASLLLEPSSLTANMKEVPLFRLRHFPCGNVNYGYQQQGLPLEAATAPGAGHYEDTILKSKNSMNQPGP

[15] = Cytotoxicity against cisplatin-resistant human C13 cells after 48 hrs; assay type: functional, cell-based; details: C13, 48 h
[16] = Inhibition of CK2

Casein kinase I isoform delta, sequence (P48730 whole entry, canonical isoform): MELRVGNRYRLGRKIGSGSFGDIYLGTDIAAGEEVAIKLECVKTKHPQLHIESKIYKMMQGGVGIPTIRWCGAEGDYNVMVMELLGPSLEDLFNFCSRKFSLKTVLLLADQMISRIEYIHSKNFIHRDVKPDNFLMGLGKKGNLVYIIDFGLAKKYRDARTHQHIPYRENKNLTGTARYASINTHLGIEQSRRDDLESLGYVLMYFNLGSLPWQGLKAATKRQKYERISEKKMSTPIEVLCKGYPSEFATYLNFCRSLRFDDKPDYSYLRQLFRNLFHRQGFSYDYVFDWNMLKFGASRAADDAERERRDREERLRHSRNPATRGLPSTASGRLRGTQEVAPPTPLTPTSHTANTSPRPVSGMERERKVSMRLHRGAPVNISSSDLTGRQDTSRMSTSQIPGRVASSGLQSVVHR

SMILES | IC50 [1] | IC50 [2] | IC50 [3] | IC50 [4] | IC50 [5] | IC50 [15] | also measured
NC(=O)c1ccc(-c2nc(-c3ccc4c(c3)OCCO4)c(-c3ccccn3)[nH]2)cc1 | 0.3 µM |  |  |  |  |  | 
NCCNS(=O)(=O)c1ccc(Cl)c2ccncc12 | 6 µM |  |  |  |  |  | 
Nc1ccc(N)c2c1C(=O)c1ccccc1C2=O |  | 14.4 µM | 0.33 µM | 34 µM | 4 µM | 87.9 µM | IC50 [6]: 3.3 µM; IC50 [7]: 24.7 µM; IC50 [8]: 3.6 µM; IC50 [9]: > 40 µM; IC50 [10]: > 40 µM; IC50 [11]: > 40 µM; IC50 [12]: > 40 µM; IC50 [13]: 24 µM; IC50 [14]: > 40 µM; IC50 [16]: 18 µM
Nc1ccc(O)c2c1C(=O)c1ccccc1C2=O |  | 122 µM | 0.66 µM | 26.2 µM | 4 µM | 8 µM | 
COc1cc(OC)c(C=C2C(=O)Nc3ccccc32)c(OC)c1 [IC261] | 1 µM |  | 2.57 µM | > 40 µM | 1.24 µM |  | 
O=C1c2ccccc2C(=O)c2c(O)ccc(O)c21 [QUINIZARIN] |  |  | > 40 µM | > 40 µM | > 40 µM |  | 
